# Biological target: human Cat S (Homo sapiens, UniProt P25774)
# Test: Cathepsin enzyme inhibition assay (fluorogenic peptide substrate cleavage)
# Format: biochemical
# Conditions: human Cat S 1 nM; substrate Z-Val-Val-Arg-AMC 20 μM; pH 6.5; fluorescence over 20 minutes
# Outline: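 Fluorogenic cleavage of Z-Val-Val-Arg-AMC (20 μM) by 1 nM enzyme in 100 mM potassium phosphate pH 6.5, 5 mM EDTA, 5 mM DTT, 0.001% Triton X-100. Reaction started with substrate; fluorescence (ex 360/em 465 nm) followed over 20 minutes. IC50 by standard methods.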
# human Cat S, sequence (P25774 115-331): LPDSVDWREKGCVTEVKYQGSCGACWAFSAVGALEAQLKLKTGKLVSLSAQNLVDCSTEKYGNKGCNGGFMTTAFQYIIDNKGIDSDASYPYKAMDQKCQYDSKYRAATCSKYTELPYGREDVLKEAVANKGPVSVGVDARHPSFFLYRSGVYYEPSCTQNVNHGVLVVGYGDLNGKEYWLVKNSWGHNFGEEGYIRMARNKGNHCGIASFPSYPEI
row,SMILES,IC50
1,"CC(=O)N1CCN(c2ccc(S(=O)(=O)[C@@H]3C[C@@H](C(=O)NC4(C#N)CC4)[C@H](C(=O)N4CCC(F)(F)C4)C3)c(Cl)c2)CC1 [Example 208, (1R,2R,4R)-4-[4-(4-Acetyl-piperazin-1-yl)-2-chloro-benzenesulfonyl]-2-(3,3-difluoro-pyrrolidine-1-carbonyl)-cyclopentanecarboxylic acid (1-cyano-cyclopropyl)-amide]",1.45 nM
2,"CC(=O)N1CCN(c2ccc(S(=O)(=O)[C@H]3C[C@@H](C(=O)NC4(C#N)CC4)[C@H](C(=O)N4CCC(F)(F)C4)C3)c(Cl)c2)CC1 [Example 209, (1R,2R,4S)-4-[4-(4-Acetyl-piperazin-1-yl)-2-chloro-benzenesulfonyl]-2-(3,3-difluoro-pyrrolidine-1-carbonyl)-cyclopentanecarboxylic acid (1-cyano-cyclopropyl)-amide]",0.54 nM
3,"N#CC1(NC(=O)[C@@H]2C[C@@H](S(=O)(=O)c3ccc(Cl)cn3)C[C@H]2C(=O)N2CCC(F)(F)C2)CC1 [Example 225, (1R,2R,4R)-4-(5-Chloro-pyridine-2-sulfonyl)-2-(3,3-difluoro-pyrrolidine-1-carbonyl)-cyclopentanecarboxylic acid (1-cyano-cyclopropyl)-amide]",0.38 nM
4,"N#CC1(NC(=O)[C@@H]2C[C@H](S(=O)(=O)c3ccc(Cl)cn3)C[C@H]2C(=O)N2CCC(F)(F)C2)CC1 [Example 226, (1R,2R,4S)-4-(5-Chloro-pyridine-2-sulfonyl)-2-(3,3-difluoro-pyrrolidine-1-carbonyl)-cyclopentanecarboxylic acid (1-cyano-cyclopropyl)-amide]",50 nM
5,"N#CC1(NC(=O)[C@@H]2C[C@@H](S(=O)(=O)c3ccccn3)C[C@H]2C(=O)N2CCC(F)(F)C2)CC1 [Example 227, (1R,2R,4R)-2-(3,3-Difluoro-pyrrolidine-1-carbonyl)-4-(pyridine-2-sulfonyl)-cyclopentanecarboxylic acid (1-cyano-cyclopropyl)-amide]",0.555 nM
6,"N#CC1(NC(=O)[C@@H]2C[C@H](S(=O)(=O)c3ccccn3)C[C@H]2C(=O)N2CCC(F)(F)C2)CC1 [Example 228, (1R,2R,4S)-2-(3,3-Difluoro-pyrrolidine-1-carbonyl)-4-(pyridine-2-sulfonyl)-cyclopentanecarboxylic acid (1-cyano-cyclopropyl)-amide]",91 nM

# Source: patent US20100317647A1 (priority 2009, published 2010)
